Assay results: patent US7186519B2 (priority 2002, dated 2007)
“Also recorded” adds a separate entry of the source.

Tests used:
[1] = tested on: 25RA cells; format: cell-based, Chinese hamster
[2] = tested on: CT43 cells; format: cell-based, Chinese hamster
[3] = tested on: CT43 cells expressing NPC1-GFP; experiment: Fluorescence microscopy of BCθ binding in NPC1-GFP transfected cells; conditions: CT43 cells expressing NPC1-GFP exposed to U18666A
Procedure: To examine the effect of NPC1 expression on intracellular BCθ binding to cholesterol in CT43 cells, a construct comprising a GFP-tagged NPC1 protein (NPC1-GFP) was prepared and introduced into CT43 cells by transient transfection. […] After BCθ binding, cells containing NPC1-GFP were viewed in the red channel to detect the BCθ fluorescence signal or in the green channel to detect the NPC1-GFP fluorescence signal. The two fluorescence signals were then merged to examine their degree of overlap.
2-hydroxypropyl-β-cyclodextrin (SIGMA™-Aldrich, St. Louis, Mo.) was added to culture medium using well-known methods (Rothblat, et al. (1999) supra). U18666A was provided to the cells using standard conditions (Lange, et al. (2000) supra; Liscum and Faust (1989) supra).
Transient transfection of NPC1-GFP was performed in CT43 cells using FUGENE™ 6 according to manufacturer's instructions (Roche, Indianapolis, Ind.). Transfected cells were imaged within 2–3 days of transfection.
Cells were grown on glass coverslips in six-well plates and processed for fluorescence studies. […]

CCCCC[C@@H](O)[C@H]1C(=O)O[C@H](C)[C@@H](O)/C=C/C=C/C=C/C=C/C=C(\C)[C@@H](O)C[C@H](O)C[C@H](O)C[C@H](O)C[C@H](O)C[C@H](O)C[C@@H]1O [filipin]
Binding to intracellular cholesterol [1]: not in 25RA cells | Binding to intracellular cholesterol [2]: able to bind intracellular cholesterol in CT43 cells

2-hydroxypropyl-b-cyclodextrin [hpCD]
Effect on BCθ fluorescence signal (intracellular cholesterol) [2]: both cell lines retained most of the BCθ fluorescence signals; also recorded: retained much of the signal

CCN(CC)CCO[C@H]1CC[C@@]2(C)C(=CC[C@@H]3[C@@H]2CC[C@]2(C)C(=O)CC[C@@H]32)C1 [U18666A]
Effect on binding of BCθ to intracellular cholesterol [3]: binding of BCθ to intracellular cholesterol persisted
